Calls of active or inactive are those of the source.

By IC50 is commonly meant the concentration that gives 50% inhibition. As a reminder, the AC50 is the concentration at which the activity in the assay is half-maximal. Usually EC50 stands for the concentration giving half of the maximal effect.

For assay [1], the target named is T1, Sentrin-specific protease 8 (Homo sapiens, UniProt Q96LD8).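 Also: luminescence read-out of SENP8 inhibition, dose-response confirmation following an ultra-high-throughput screen.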
T1 sequence (Q96LD8 whole entry): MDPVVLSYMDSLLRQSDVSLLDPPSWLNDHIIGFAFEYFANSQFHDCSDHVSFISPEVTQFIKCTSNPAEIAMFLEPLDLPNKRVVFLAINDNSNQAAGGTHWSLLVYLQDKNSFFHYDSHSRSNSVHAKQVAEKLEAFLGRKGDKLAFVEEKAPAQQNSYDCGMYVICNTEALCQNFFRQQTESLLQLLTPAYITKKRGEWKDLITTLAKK
In kind it is functional.

The target in assay [2] is Cytochrome P450 2C9 (Homo sapiens, UniProt P11712).
Assay [3] is described as follows: Luminescence Cell-Based Dose Response HTS to Identify Activators of Luciferase Translation or Activity in H4 […] Cells. [Related pubchem assays: 1829 (Project Summary), 1814 (Primary HTS)]. In kind it is functional.
A short description of assay [4]: Luminescence Cell-Based Dose Confirmation HTS to Identify Activators of 5'UTR Stem-Loop Driven Alpha-Synuclein mRNA Translation in H4 Neuroglioblastoma Cells. [Related pubchem assays: 1829 (Project Summary), 1814 (Primary HTS)]. Type of assay: functional.
Assay [5] has as its target T2, Sentrin-specific protease 6 (Homo sapiens, UniProt Q9GZR1).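 Also: Luminescence-based dose-response confirmatory assay of SENP6 inhibition, following up an ultra-high-throughput screen.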
T2 sequence (Q9GZR1 whole entry): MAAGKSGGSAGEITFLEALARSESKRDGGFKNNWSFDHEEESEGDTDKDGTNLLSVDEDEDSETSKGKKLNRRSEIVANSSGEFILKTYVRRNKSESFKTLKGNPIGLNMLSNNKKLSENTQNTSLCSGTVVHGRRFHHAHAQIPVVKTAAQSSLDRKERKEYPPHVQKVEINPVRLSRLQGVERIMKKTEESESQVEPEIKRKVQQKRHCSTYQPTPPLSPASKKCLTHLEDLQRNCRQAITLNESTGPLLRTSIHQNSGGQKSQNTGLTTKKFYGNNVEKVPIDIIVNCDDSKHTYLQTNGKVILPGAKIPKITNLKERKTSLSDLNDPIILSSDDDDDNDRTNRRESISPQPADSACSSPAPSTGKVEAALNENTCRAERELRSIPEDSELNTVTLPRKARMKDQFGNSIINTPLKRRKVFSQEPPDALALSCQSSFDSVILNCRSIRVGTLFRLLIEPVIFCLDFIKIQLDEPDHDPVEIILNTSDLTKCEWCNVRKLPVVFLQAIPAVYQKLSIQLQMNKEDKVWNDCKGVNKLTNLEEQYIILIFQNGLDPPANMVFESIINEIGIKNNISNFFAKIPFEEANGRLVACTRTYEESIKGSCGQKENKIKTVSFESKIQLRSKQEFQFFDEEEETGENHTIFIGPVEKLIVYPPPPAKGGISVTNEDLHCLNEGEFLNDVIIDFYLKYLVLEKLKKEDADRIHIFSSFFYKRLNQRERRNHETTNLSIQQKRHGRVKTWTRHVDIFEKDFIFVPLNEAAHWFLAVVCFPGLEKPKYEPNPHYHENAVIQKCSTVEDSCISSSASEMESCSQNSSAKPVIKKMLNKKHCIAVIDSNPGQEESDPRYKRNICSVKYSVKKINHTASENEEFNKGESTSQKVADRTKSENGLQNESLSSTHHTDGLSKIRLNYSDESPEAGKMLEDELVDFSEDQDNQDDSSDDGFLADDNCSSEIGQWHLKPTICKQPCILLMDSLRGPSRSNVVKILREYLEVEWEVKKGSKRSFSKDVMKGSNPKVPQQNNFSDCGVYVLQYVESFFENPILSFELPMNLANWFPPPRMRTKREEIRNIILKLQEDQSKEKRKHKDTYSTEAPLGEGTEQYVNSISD
Type of assay: functional.

Assay [6] addresses T3, Caspase-3 (Homo sapiens, UniProt P42574).
T3 sequence (P42574 whole entry): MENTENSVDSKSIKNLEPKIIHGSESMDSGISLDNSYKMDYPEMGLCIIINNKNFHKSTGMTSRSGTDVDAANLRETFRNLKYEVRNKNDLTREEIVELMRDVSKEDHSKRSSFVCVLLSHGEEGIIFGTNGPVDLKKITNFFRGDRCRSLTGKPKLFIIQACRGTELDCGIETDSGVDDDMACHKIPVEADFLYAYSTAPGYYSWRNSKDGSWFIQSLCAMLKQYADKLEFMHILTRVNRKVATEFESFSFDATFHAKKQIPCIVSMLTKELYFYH
In kind it is functional.

Assay [7] deals with H4. Kind of assay: Luminescence Cell-Based Dose Response HTS to Identify Activators of 5'UTR Stem-Loop Driven Prion Protein mRNA Translation in H4 Neuroglioblastoma Cells. [Related pubchem assays: 1829 (Project Summary), 1814 (Primary HTS)]. In kind it is functional. Conditions: Homo sapiens.
For assay [8], the target named is T4, Sentrin-specific protease 7 (Homo sapiens, UniProt Q9BQF6).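 Also: Luminescence-based dose-response confirmation of ultra-high-throughput screening hits, measuring inhibition of SENP7.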
T4 sequence (Q9BQF6 whole entry): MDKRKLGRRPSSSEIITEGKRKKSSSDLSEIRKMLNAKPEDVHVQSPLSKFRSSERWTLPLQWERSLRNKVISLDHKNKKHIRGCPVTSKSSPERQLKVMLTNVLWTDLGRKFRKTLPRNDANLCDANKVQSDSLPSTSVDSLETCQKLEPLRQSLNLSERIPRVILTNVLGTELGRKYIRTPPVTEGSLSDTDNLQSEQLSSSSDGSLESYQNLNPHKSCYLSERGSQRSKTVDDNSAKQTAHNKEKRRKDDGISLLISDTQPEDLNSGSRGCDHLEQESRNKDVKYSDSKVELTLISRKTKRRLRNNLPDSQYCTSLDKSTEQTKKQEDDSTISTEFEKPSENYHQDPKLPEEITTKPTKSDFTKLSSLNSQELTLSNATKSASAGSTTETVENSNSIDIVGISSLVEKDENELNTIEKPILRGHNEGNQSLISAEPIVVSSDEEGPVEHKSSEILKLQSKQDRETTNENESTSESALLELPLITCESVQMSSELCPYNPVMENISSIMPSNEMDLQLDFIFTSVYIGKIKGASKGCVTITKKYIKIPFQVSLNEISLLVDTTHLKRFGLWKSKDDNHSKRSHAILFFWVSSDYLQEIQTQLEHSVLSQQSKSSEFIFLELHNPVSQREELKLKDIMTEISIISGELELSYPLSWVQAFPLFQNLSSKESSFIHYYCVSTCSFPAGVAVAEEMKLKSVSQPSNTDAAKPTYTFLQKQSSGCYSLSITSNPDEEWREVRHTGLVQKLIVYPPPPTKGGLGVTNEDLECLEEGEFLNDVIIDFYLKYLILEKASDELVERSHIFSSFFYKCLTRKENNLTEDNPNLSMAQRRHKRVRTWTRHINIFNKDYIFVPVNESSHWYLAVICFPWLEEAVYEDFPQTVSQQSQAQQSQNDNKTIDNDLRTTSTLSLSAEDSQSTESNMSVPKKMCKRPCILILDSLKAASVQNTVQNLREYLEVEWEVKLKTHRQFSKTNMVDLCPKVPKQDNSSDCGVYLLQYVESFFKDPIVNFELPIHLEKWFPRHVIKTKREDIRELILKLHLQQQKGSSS
Type of assay: functional.

Assay [9] addresses Large T antigen (Simian virus 40, UniProt P03070). Type of assay: functional, Betapolyomavirus macacae.
Assay [10] has as its system BJ. Kind of assay: cytotoxicity toward BJ-TERT-LT-ST fibroblasts, dose response, cell-based, RAS-independent, luminescence (AID 1935).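 Also: BJ fibroblasts immortalized with TERT plus LT and ST oncogenes.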 Conditions: Homo sapiens. Type of assay: functional.
The nature of assay [11]: cytotoxicity toward DRD oncogenic fibroblasts, dose response, cell-based, non-viral oncogenic, luminescence (AID 1934). In kind it is functional. Conditions: Homo sapiens.
Assay [12] concerns BJ. Kind of assay: cytotoxicity toward Ras-transformed BJeLR fibroblasts, dose response, cell-based, alamar blue fluorescence, cherrypicked samples (AID 2631).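 Also: confirmatory dose-response assay in RAS-dependent BJ fibroblasts engineered with TERT, LT and ST, with cytotoxicity read by fluorescence.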 In kind it is functional. Conditions: Homo sapiens. A general note: The colour change of resazurin is a common sign of viable cells or microbes.
The subject of assay [13] is BJ. Kind of assay: cytotoxicity toward BJ-TERT fibroblasts, dose response, cell-based, RAS-independent, luminescence (AID 1933). In kind it is functional. Conditions: Homo sapiens.
For assay [14], the system named is BJ. Kind of assay: cells. Type of assay: functional, cell-based. Conditions: Homo sapiens.
Assay [15] relates to Streptococcus sp. 'group A'. Kind of assay: growth inhibition of control SK(-) GAS strain, dose response, counter-screen for streptokinase expression inhibitor project, luminescence, kanamycin, BacTiterGlo, confirmation (AID 1900). In kind it is functional, organism-based. In general terms: Counterscreens check selectivity or assay interference.
The subject of assay [16] is Streptococcus. Kind of assay: Group A Streptococcus viability loss, dose response, counter-screen for streptokinase expression inhibitor project, luminescence, BacTiterGlo (AID 1915).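 Also: potency for reduction of bacterial viability or growth.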 Type of assay: functional, organism-based.
In assay [17] the target is T5, Streptokinase A (Streptococcus pyogenes serotype M1, UniProt P10520).
T5 sequence (P10520 whole entry): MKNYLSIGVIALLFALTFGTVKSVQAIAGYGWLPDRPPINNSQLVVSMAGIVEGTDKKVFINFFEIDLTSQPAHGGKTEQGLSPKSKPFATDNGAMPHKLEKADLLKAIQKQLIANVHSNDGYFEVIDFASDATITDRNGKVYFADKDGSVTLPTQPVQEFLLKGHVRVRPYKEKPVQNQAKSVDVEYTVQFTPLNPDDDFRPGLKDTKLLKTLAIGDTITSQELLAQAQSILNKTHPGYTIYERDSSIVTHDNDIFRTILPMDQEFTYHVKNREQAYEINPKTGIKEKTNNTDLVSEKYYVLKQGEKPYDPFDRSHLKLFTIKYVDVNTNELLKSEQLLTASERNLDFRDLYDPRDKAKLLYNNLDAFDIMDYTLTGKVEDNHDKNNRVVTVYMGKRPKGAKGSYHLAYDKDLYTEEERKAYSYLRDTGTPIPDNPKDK
In words: S. pyogenes streptokinase expression inhibitors, potency, dose response, plasminogen activation absorbance, OD405 (AID 1914).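 Also: secreted streptokinase activity via plasminogen activation per viability signal from cell pellet.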 Type of assay: functional, Streptococcus pyogenes M1 GAS.

Assay [18] has as its target T6, Apoptotic protease-activating factor 1 (Homo sapiens, UniProt O14727).
T6 sequence (O14727 whole entry): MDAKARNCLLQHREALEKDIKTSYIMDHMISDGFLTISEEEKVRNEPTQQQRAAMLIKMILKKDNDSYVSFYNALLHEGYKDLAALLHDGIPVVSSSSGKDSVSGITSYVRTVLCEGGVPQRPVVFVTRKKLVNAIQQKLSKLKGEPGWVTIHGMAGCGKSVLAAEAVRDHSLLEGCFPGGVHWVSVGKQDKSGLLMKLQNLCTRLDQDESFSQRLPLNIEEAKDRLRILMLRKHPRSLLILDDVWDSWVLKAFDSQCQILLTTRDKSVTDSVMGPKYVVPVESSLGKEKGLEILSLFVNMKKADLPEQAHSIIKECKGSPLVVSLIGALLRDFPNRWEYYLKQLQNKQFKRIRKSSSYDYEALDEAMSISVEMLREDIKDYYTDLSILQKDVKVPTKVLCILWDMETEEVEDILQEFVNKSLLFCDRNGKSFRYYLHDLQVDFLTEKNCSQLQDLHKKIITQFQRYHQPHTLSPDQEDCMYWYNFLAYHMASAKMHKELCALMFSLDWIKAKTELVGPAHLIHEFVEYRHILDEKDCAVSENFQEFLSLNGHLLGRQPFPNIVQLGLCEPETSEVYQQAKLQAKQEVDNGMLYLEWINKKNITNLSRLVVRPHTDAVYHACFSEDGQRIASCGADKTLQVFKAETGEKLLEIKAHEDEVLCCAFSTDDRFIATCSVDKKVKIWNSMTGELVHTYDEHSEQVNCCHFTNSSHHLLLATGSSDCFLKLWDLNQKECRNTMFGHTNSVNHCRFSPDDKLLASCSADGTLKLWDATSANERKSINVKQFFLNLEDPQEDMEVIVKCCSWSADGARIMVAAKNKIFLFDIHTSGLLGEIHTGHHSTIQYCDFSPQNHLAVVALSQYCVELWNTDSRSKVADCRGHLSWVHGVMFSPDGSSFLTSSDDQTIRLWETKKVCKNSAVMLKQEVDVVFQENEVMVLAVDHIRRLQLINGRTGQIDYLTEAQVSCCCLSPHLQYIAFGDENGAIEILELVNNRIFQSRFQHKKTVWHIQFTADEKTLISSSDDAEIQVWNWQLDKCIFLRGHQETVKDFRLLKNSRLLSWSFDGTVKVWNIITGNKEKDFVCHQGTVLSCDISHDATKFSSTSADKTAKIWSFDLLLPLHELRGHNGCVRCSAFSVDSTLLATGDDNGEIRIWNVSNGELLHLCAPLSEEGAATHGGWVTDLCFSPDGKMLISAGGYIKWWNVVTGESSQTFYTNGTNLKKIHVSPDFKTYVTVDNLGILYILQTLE
In kind it is functional.

Chain of Cytochrome P450 2C9 (P11712 whole entry): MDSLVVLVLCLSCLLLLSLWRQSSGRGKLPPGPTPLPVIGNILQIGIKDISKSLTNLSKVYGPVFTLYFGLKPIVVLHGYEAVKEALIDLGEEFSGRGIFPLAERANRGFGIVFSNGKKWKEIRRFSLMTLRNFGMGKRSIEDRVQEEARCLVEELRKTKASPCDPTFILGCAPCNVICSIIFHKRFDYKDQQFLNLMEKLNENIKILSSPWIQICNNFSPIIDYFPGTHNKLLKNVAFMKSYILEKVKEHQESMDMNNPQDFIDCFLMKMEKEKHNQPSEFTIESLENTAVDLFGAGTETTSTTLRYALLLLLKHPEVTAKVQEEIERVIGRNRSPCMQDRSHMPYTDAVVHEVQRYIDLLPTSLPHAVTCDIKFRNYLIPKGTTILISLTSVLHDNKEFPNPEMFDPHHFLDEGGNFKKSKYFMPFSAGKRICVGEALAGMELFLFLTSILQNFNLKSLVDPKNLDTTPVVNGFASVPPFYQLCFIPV
Chain of Large T antigen (P03070 whole entry): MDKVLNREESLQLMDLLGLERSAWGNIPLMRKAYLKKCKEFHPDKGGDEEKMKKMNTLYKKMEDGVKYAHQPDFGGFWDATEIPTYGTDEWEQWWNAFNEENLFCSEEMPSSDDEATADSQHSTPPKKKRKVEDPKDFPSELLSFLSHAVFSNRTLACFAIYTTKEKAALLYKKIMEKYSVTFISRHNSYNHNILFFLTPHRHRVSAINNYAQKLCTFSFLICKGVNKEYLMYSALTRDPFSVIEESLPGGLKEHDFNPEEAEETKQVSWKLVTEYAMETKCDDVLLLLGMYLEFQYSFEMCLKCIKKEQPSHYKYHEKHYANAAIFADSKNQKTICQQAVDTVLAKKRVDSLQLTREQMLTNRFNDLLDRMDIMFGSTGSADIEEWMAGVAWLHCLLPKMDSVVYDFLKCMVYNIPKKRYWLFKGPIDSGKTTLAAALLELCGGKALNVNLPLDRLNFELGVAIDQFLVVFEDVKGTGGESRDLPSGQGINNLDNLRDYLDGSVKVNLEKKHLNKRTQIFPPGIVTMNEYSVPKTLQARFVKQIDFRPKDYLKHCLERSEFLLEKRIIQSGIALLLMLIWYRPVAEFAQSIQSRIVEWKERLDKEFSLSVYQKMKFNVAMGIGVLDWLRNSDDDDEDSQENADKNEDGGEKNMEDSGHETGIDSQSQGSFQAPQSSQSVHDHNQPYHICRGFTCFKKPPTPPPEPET

With `Clc1ccc(-c2cc3ccccc3[nH]2)cc1`, the IC50 was 19.9 µM (active) in assay [1], 18 µM (active) in assay [5], 16 µM (active) in [6] and 8.48 µM (active) in assay [8]. Further, the AC50 in assay [2] is 11.2 µM (inconclusive). Also, the EC50 is 106 µM (active) in [3], 3.77 µM (active) in [4] and 9.01 µM (active) in assay [7].
As to `Cc1cc(-n2c(C)cc(C(=O)COc3ccc(F)c(F)c3)c2C)no1`, the IC50 in assay [1] is 20.4 µM (active); in assay [5], 22.7 µM (active); in assay [6], 21 µM (active); in [8] it was 8.26 µM (active).
On to `Fc1ccc(NC(=S)N2N=CCC2c2ccccc2)cc1` (stereo not given), for which the IC50 in assay [1] is 38.3 µM (active); in [5], 39.3 µM (active); in assay [6], 15.9 µM (active); in assay [8] it was 11.8 µM (active).
`C/C(=N/OC(=O)c1ccccc1Br)c1ccc(C)cc1`: the half-inhibitory concentration (IC50) in assay [1] was 46.9 µM (active); in assay [5], 28.1 µM (active); in assay [6], 31.3 µM (active); in [8], 7.72 µM (active).
As for `Cc1cc(C)c2c(CCl)cc(=O)oc2c1`, the IC50 in assay [9] was 9.73 µM (active). For the same compound, the EC50 was 0.584 µM (inconclusive) in assay [10]; 0.762 µM (active) in assay [11]; 0.296 µM (active) in [12]; 0.784 µM (active) in assay [13]; 0.676 µM (active) in [14].
With `C[C@@]12CCC=C[C@H]1[C@H](c1ccc3ccccc3c1Br)N(Cc1ccccc1)C2=O`, the EC50 is 4.22 µM (active) in [15], 5.78 µM (active) in assay [16] and 5.76 µM (active) in assay [17]. In assay [18], the IC50 is 59.3 µM (active).
Turning to `COCCCNC(=O)Cc1c(C)c2c(cc(C)c3c(C(C)(C)C)coc32)oc1=O`, the EC50 is 4.18 µM (active) in assay [10]; 10.6 µM (inconclusive) in [11]; 0.473 µM (active) in [12]; 8.02 µM (inconclusive) in [13]; 19.3 µM (inconclusive) in assay [14].
